Experimental data reported in the METLIN SMRT retention time set (Domingo-Almenara et al. 2019).

assay: gradient 5% acetonitrile 3 min, to 50% in 2 min, to 85% in 15 min, held 3 min, 100 µL/min; settings: column: Zorbax Extend-C18 2.1 x 50 mm; eluents: water / acetonitrile, 0.1% formic acid
Outline: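 Retention times come from adduct peaks that were picked computationally and then checked by hand. The standards, pure and pooled in mixtures of ~100 molecules, were run on a Zorbax Extend-C18 column (2.1 × 50 mm, 1.8 μm) at 100 μL/min with water and acetonitrile, each with 0.1% formic acid. Detection was by quadrupole time-of-flight mass spectrometry in positive and negative ionization mode, with a dead volume of 40 μL and a dwell volume of 900 μL.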

| Structure (SMILES) | RP-LC retention time |
| --- | --- |
| CCOC(=O)N1CCN(C(=O)c2cc(-c3ccco3)on2)CC1 | 735 s |
| c1ccc(-c2nc(C3CCN(Cc4cccs4)C3)no2)nc1 (stereo not drawn) | 583 s |
| Cc1ccc(CN2CCC(C(=O)N3CCCCCCNC(=O)CC3)CC2)s1 | 595 s |
| Cc1ccc(Cn2c(C(=O)NCCc3ccccc3)cc3sccc32)cc1 | 1180 s |
| CS(=O)(=O)c1nc2ccc(NS(=O)(=O)c3ccc4c(c3)OCCO4)cc2s1 | 792 s |
| Cc1nc(-c2ccccc2)nc2c1CCC(=O)N2C | 868 s |
| CCN(CC)S(=O)(=O)c1c(C)nn(C(=O)c2ccccc2OC)c1C | 951 s |
| O=C(COc1ccc(Cl)cc1)Nc1ccccc1NC(=O)c1cccs1 | 887 s |
| Cc1ccccc1-c1cc(C(N)=O)c2ccccc2n1 | 718 s |
| COc1ccc(C(=O)N2CCN(c3ccc(-c4nc(C)cs4)cn3)CC2)cc1 | 805 s |
| O=C(NCCc1csc(-c2ccccc2)n1)[C@H]1CCCN1S(=O)(=O)c1cccc(Cl)c1 | 994 s |
| COc1cccc(NC(=O)Cn2c(C)cc(-c3nnc(-c4ccccc4)o3)c2C)c1 | 921 s |
| CCc1noc(NC(C)=O)c1-c1ccc(OC)c(S(=O)(=O)Nc2ccc(C)cc2)c1 | 784 s |
| Clc1ccc(-c2csc(Cc3nc(-c4ccc5c(c4)OCO5)no3)n2)cc1 | 1200 s |
| CN(CC1(C)CCOCC1)S(=O)(=O)c1ccc(F)c(F)c1 | 910 s |
| CC1CC(=O)Nc2cc(S(=O)(=O)N3CCN(c4ccccn4)CC3)ccc2S1 (stereo not drawn) | 646 s |
| O=C(Cn1nc2c(cc1=O)CCCC2)Nc1nc(-c2ccccn2)cs1 | 609 s |
| CCNc1cc(N2CCC(CCC(=O)NCc3cc(F)ccc3F)CC2)ncn1 | 666 s |
| CCCCOc1cccc(C(=O)N(Cc2ccc(Br)o2)C2CCS(=O)(=O)C2)c1 (stereo not drawn) | 1090 s |
| Cc1cccc(S(=O)(=O)N2C[C@@H](F)C[C@H]2C(=O)N2CCc3ccccc3C2)c1 | 906 s |
| CCCn1c(CN2CCOCC2)nc2cc(NC(=O)CC(C)C)ccc21 | 633 s |

| Structure (SMILES) | RP-LC retention time |
| --- | --- |
| Cc1ccccc1-c1nnc(CSc2nnc(NC(=O)c3ccccc3C(F)(F)F)s2)o1 | 972 s |
| CCn1ccc2cc(S(=O)(=O)N3CCCC(C(=O)NCCCN4CCOCC4)C3)ccc21 (stereo not drawn) | 648 s |
| O=C(C1COc2ccccc2O1)N1CCc2cc(-c3ccno3)ccc21 (stereo not drawn) | 991 s |
| CSc1cccc(NC(=O)N2CCc3nc(-c4ccccc4)ncc3C2)c1 | 955 s |
| COc1ccccc1OCCNC(=O)C1CCN(c2nnc3ccc(Cl)cn23)CC1 | 707 s |
| COc1ccc(Cl)cc1S(=O)(=O)N1CCC(C(=O)NCCCOC(C)C)CC1 | 804 s |
| CCCOC(=O)c1ccc(Nc2nc(C(=O)OCC)nc3ccccc23)cc1 | 1020 s |
| Cc1ccc(-n2ncc3c(NCCN(C)C)ncnc32)cc1Cl | 669 s |
| COc1ccc(-n2ncc3c(=O)n(Cc4nc(-c5ccc(Br)cc5)no4)cnc32)cc1 | 1090 s |
| CCN1CCCn2cc(S(=O)(=O)Nc3cc(OC)ccc3OC)cc2C1=O | 704 s |
| CCOc1ccc(CN(CC)Cc2cc(=O)n3cc(Cl)ccc3n2)cc1 | 654 s |
| COc1ccc(S(=O)(=O)N2CCCC(C(=O)Nc3ccc(Br)cc3)C2)cc1C (stereo not drawn) | 1110 s |
| CCOc1ccc(NC(=O)N2CCCC(Cn3c(C4CC4)nc4cccnc43)C2)cc1 (stereo not drawn) | 689 s |
| O=C([C@@H]1COCC(=O)N1Cc1ccccc1)N1CCN(Cc2ccc3c(c2)OCO3)CC1 | 606 s |
| O=S(=O)(c1cccc(C(F)(F)F)c1)N1CCOCC1 | 794 s |
| CC(C)CNC(=O)c1ccc2c(c1)Sc1ncccc1C(=O)N2C(C)C | 805 s |
| CN(CC1(C)CCOCC1)S(=O)(=O)c1cccc(C(F)(F)F)c1 | 980 s |
| Cc1noc(C)c1-c1ccc(S(=O)(=O)Nc2ccccc2F)cc1 | 881 s |
| Cc1nc(-c2ccc(N3CCN(C(=O)c4cccc(F)c4)CC3)nc2)sc1C | 921 s |
| Cc1nnc(CNC(=O)CCn2nnc3ccccc3c2=O)o1 | 566 s |
| CCOCCCNC(=O)N1CCCCCC1c1cccc(C)c1 (stereo not drawn) | 954 s |

| Structure (SMILES) | RP-LC retention time |
| --- | --- |
| O=C(NC1CCCCC1)C1CC(=O)N(c2ccc3c(c2)CCN3C(=O)C2CC2)C1 (stereo not drawn) | 733 s |
| COc1cccc(Cn2c(=O)c3sccc3n(Cc3nc(-c4cccc(OC)c4)no3)c2=O)c1 | 1080 s |
| Cc1ccc(C)c(NC(=O)N2CCC(c3nc(C(=O)N4CCOCC4)c(C)o3)CC2)c1 | 712 s |
| CCN1CCC2(CC1)OC(=O)C(C)=C2C(=O)NCc1ccc(C)cc1 | 558 s |
| Cc1nc(-n2nc(C)c(Cl)c2C)sc1C(=O)N1CCCCC1 | 1200 s |
| O=C(Cc1ccccc1)N1CC(Oc2ccc(-c3nc(-c4ccccc4)no3)cc2)C1 | 1150 s |
| COC(=O)c1ccc(Cn2cnc3nc4c(cc3c2=O)CC(C)CC4)cc1 (stereo not drawn) | 852 s |
| Cc1cc(C)n(-c2ccnc(NCc3ccc(F)cc3)n2)n1 | 829 s |
| CCC(C)Sc1nnc(NC(=O)C2CCN(C(=O)c3ccccc3)CC2)s1 (stereo not drawn) | 854 s |
| O=C(NCc1ccc(F)c(Cl)c1)C1CCCN(c2cnc3nccnc3c2)C1 (stereo not drawn) | 757 s |
| COCCNc1nc(-c2ccc(C)cc2)nnc1C | 608 s |
| COC(=O)C1=CN(c2cc(Cl)c(OC)cc2OC)c2cc(F)ccc2S1(=O)=O | 918 s |
| Cc1noc(-c2ccc(OC3CN(C(=O)c4ccco4)C3)cc2)n1 | 789 s |
| COc1ccc(-c2noc(C3CCCN3C(=O)c3ccccc3F)n2)cc1 (stereo not drawn) | 952 s |
| O=C(Nc1ccc(F)c(Cl)c1)C1CCc2nc(N3CCOCC3)ncc2C1 (stereo not drawn) | 855 s |
| O=S(=O)(Cc1ccccc1)N1CCCC(c2nn[nH]n2)C1 (stereo not drawn) | 706 s |
| Cc1nc2cc(N3CCCC(C(=O)Nc4ccc5c(c4)OCCO5)C3)cnc2nc1C (stereo not drawn) | 711 s |
| CCC(C)NC(=O)c1n[nH]c2c1CCCC2 (stereo not drawn) | 718 s |
| COc1ccc(Cn2c(=O)c3sccc3n(Cc3nc(-c4ccccc4OC)no3)c2=O)cc1 | 970 s |
| CC(=O)N1CCc2ccc(NC(=O)c3cccc(Br)c3)cc21 | 774 s |
| O=C(c1ccsc1)N1CCN(C(=O)c2cc(-c3ccccn3)n[nH]2)CC1 | 614 s |
